For orientation: Ki means the equilibrium dissociation constant of an inhibitor or competing ligand from its target.

Drawing on ChEMBL document CHEMBL1135787, “Synthesis of new molecular probes for investigation of steroid biosynthesis induced by selective interaction with peripheral type benzodiazepine receptors (PBR)” (J Med Chem, 2002), this text covers Ki and Progesterone production for 22 compounds.

Test [1] concerns the target T1, Translocator protein (Rattus norvegicus, UniProt P16257). Description: Inhibition of [3H]PK11195 binding to Peripheral type benzodiazepine receptor (PBR) in rat cortex homogenate by 50%.
Test [2] is described as follows: Stimulatory effect on progesterone biosynthesis in MA10 leydig cells. The format is functional, Mus musculus.
The target in test [3] is T1, Translocator protein. Description: Inhibition of [3H]Ro-5-4864 binding to mitochondrial rat testis Peripheral type benzodiazepine receptor (PBR).
The target of test [4] is T1, Translocator protein. Description: Inhibition of [3H]PK11195 binding to mitochondrial rat testis Peripheral type benzodiazepine receptor (PBR).

T1 sequence (P16257 whole entry, looked up): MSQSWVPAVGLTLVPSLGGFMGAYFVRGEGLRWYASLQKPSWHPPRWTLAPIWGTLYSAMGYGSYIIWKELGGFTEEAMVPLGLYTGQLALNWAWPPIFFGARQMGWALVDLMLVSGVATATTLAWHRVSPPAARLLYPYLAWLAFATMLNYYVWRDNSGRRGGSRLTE

In turn, `CCNC(=O)OC1=C(c2ccccc2)Oc2c(Cl)cccc2-n2cccc21` returned a Ki in test [1] of 0.18 nM.

With `O=C1CN=C(c2ccccc2Cl)c2cc([N+](=O)[O-])ccc2N1` [CLONAZEPAM], in test [2], the Progesterone production was 2.3 ng 2hr-1 (10e5*cells)-1.

In turn, `CCN(CC)C(=O)OC1=C(c2ccccc2)Cc2ccccc2-n2cccc21` showed a Ki in test [1] of 5.7 nM.

As for `CCN(CC)C(=O)OC1=C(c2cccc(C)c2)Oc2ccccc2-n2cccc21`, the Ki in test [1] came to 1.2 nM.

For `CCC(C)N(C)C(=O)c1cc2ccccc2c(-c2ccccc2Cl)n1` (configuration not stated) [PK-11195], the Progesterone production in test [2] is listed as 3.4 ng 2hr-1 (10e5*cells)-1.

On to `CCN(CC)C(=O)OC1=C(c2ccccc2)Oc2cccnc2-n2cccc21`, for which the Ki was found to be 22 nM in test [3], 1.77 nM in test [1] and 11 nM in test [4]. For the same compound, the Progesterone production in test [2] is on record as 3.5 ng 2hr-1 (10e5*cells)-1.

On to `CC(=O)OC1=C(c2cccc(C)c2)Oc2ccccc2-n2cccc21`, for which the Ki in test [1] came to 2.5 nM.

Regarding `CCN(CC)C(=O)OC1=C(c2cccs2)Oc2ccccc2-n2cccc21`, the affinity in test [1], expressed as Ki, was 11.5 nM.

As to `CCNC(=O)OC1=C(c2ccccc2)Oc2ccccc2-n2cccc21`, the Ki in test [3] is 0.1 nM; in test [1], 0.11 nM; in test [4], 0.2 nM. Moreover, in test [2], the Progesterone production is on record as 3.3 ng 2hr-1 (10e5*cells)-1.

Consider `CCCN(C)C(=O)OC1=C(c2ccccc2)Oc2ccccc2-n2cccc21`, for which the affinity in test [1] corresponds to a Ki of 0.69 nM.

Compound `CCCNC(=O)OC1=C(c2ccccc2)Oc2ccccc2-n2cccc21` returned a Ki in test [1] of 0.91 nM.

Take `O=C(OC1=C(c2ccccc2)Oc2ccccc2-n2cccc21)N1CCC1`: the Ki in test [3] stood at 4.3 nM; in test [1], 6.03 nM; in test [4] it was 6 nM. The Progesterone production in test [2] is 3.5 ng 2hr-1 (10e5*cells)-1.

As to `CN1CCN(C(=O)OC2=C(c3ccccc3)Oc3ccccc3-n3cccc32)CC1`, the values for the Ki in test [3], in test [1] and in test [4] were 15 nM, 7.2 nM and 29 nM, respectively. Besides, the Progesterone production in test [2] is listed as 3.8 ng 2hr-1 (10e5*cells)-1.

In test [1], `CCN(CC)C(=O)OC1=C(c2cccc(C)c2)Oc2cccnc2-n2cccc21` displayed a Ki of 0.56 nM.

`CCN(CC)C(=O)OC1=C(c2cc(F)cc(F)c2)Oc2ccccc2-n2cccc21`: the Ki in test [1] was 1.26 nM.

`CCNC(=O)OC1=C(c2ccc(C)cc2)Oc2ccccc2-n2cccc21` came in with a Ki in test [1] of 0.68 nM.

In turn, `Cc1ccc(C2=C(OC(=O)N(C)C)c3cccn3-c3ncccc3O2)cc1` showed a Ki in test [1] of 0.44 nM.

For the compound `O=C(NC1CC1)OC1=C(c2ccccc2)Oc2ccccc2-n2cccc21`, the Ki is 0.47 nM in test [3], 2.21 nM in test [1] and 0.31 nM in test [4]. The Progesterone production in test [2] was 3.5 ng 2hr-1 (10e5*cells)-1.

Compound `CCN(C)C(=O)OC1=C(c2ccccc2)Oc2ccccc2-n2cccc21` came in with a Ki in test [1] of 0.78 nM.

Turning to `CCN(CC)C(=O)OC1=C(c2cccs2)Oc2cccnc2-n2cccc21`, the Ki in test [1] was 0.23 nM.

Turning to `CCCCN(C)C(=O)OC1=C(c2ccccc2)Oc2ccccc2-n2cccc21`, the Ki in test [1] was determined as 0.92 nM.

Regarding `CC(=O)OC1=C(c2ccc(C)cc2)Oc2cccnc2-n2cccc21`, the Ki in test [1] turned out to be 13.5 nM.
